{
  "source": "patent US8303962B2",
  "about": "“Antibacterial and antifungal peptides” (C3 Jian, Inc., priority 2009, dated 2012)",
  "key": {"P. aeruginosa": {"system": "P. aeruginosa", "assay_type": "cell-based, Pseudomonas aeruginosa", "conditions": "MH, 37° C., aerobic", "method": "(§1) In certain embodiments the MIC assays are performed as described herein in the Examples. For each organism, the media and growth conditions utilized is detailed in Table 8.\n(§2) In certain embodiments the MIC assays are performed as follows: For each organism, the media and growth conditions utilized is detailed in Table 8."}, "P. gingivalis": {"system": "P. gingivalis", "assay_type": "cell-based, Porphyromonas gingivalis", "conditions": "Columbia broth, 37° C., anaerobic", "method": "as §1, §2"}, "T. rubrum": {"system": "T. rubrum", "assay_type": "cell-based, Trichophyton rubrum", "conditions": "T. rubrum; Potato Dextrose Agar, 25° C., aerobic", "method": "as §1, §2"}, "M. furfur": {"system": "M. furfur", "assay": "MIC assay, M. furfur", "assay_type": "cell-based, Malassezia furfur", "conditions": "ATCC medium 1072, 37° C., aerobic", "method": "as §1, §2"}, "S. epidermidis": {"system": "S. epidermidis", "assay_type": "cell-based", "conditions": "BHI supplemented with 0.25% glucose, 37° C., aerobic", "method": "as §1, §2"}, "S. mutans": {"system": "S. mutans", "assay_type": "cell-based, Streptococcus mutans", "conditions": "TH supplemented with 1% sucrose, 37° C., anaerobic", "method": "as §1, §2"}},
  "data": [
    {"smiles": "CC[C@H](C)[C@H](NC(=O)[C@@H](NC(=O)[C@H](CO)NC(=O)CN)C(C)C)C(=O)N[C@@H](CCCCN)C(=O)N[C@@H](CCCCN)C(=O)N[C@@H](CCCNC(=N)N)C(=O)N[C@@H](CCCNC(=N)N)C(=O)N[C@@H](CCCCN)C(=O)N[C@@H](CCCNC(=N)N)C(=O)N[C@@H](CCSC)C(=O)N[C@@H](CO)C(=O)N[C@@H](CCCCN)C(=O)N[C@@H](CCCCN)C(=O)N[C@@H](CCCCN)C(=O)N[C@@H](Cc1c[nH]cn1)C(=O)N[C@@H](CCCNC(=N)N)C(=O)N[C@@H](CCCCN)C(=O)N[C@@H](CCSC)C(=O)N[C@@H](CC(C)C)C(=O)N[C@@H](CCCNC(=N)N)C(=O)N[C@@H](CCCNC(=N)N)C(=O)N[C@H](C(=O)N[C@@H](CCCNC(=N)N)C(=O)N[C@H](C(=O)N[C@@H](CCC(N)=O)C(=O)N[C@@H](CCCNC(=N)N)C(=O)N[C@@H](CCCNC(=N)N)C(=O)N[C@@H](CCCCN)C(=O)N[C@@H](CC(C)C)C(=O)NCC(=O)N[C@@H](CCCCN)C(=O)O)C(C)C)[C@@H](C)O", "note": "[PF-S028]", "values": [
      {"measurement": "MIC", "setting": "P. aeruginosa", "value": 50, "unit": "µM"},
      {"measurement": "MIC", "setting": "P. gingivalis", "value": 25, "unit": "µM"},
      {"measurement": "MIC", "setting": "T. rubrum", "value": 50, "unit": "µM"},
      {"measurement": "MIC", "setting": "M. furfur", "value": 2.5, "unit": "µM"},
      {"measurement": "MIC", "setting": "S. epidermidis", "value": 25, "unit": "µM"},
      {"measurement": "MIC", "setting": "S. mutans", "value": 50, "unit": "µM"}
    ]}
  ]
}
